Assay results reported in patent US20070293459A1, “Method for Inhibiting Cellular Na+-K+ ATPase Activity” (JASON LIFE TECH INC. LTD., priority 2006, published 2007).

Tests used:
Na^+—K^+ ATPase [1] = experiment: Na+-K+ ATPase activity of rat brain cortex plasma membrane (Pi liberated from ATP hydrolysis); type: biochemical; conditions: for Na+-K+ ATPase activity (free Pi), MLB compared with ouabain: FIG. 2, various MLB or ouabain concentrations
Description: (§1) First, Male Sprague-Dawley (NarII: SD) rats (3-month-old) were purchased from National Laboratory Animal Center (Nankang, Taipei) and raised under specific pathogen-free conditions. Animals were provided with rat chow (Rodent Laboratory Chow 5001, Purina, Mo.) and tap water throughout the studies. The rats received humane care in accordance with the guidelines of a guidebook for the care and use of laboratory animals. The animals were sacrificed by decapitation, and the brain and heart organs of the rats were removed immediately after complete exsanguination.
Next, the plasma membrane was isolated from the rat brain and heart at 4° C. The brain and heart homogenate were prepared respectively with homogenized plasma membrane in 10-20 volumes of […] sucrose solution containing 5.0 mM 4-(2-hydroxyethyl)-1-piperazineethanesulfonic acid (HEPES) and 1.0 mM EDTA, pH7.5. Then, the brain or heart homogenate was centrifuged at 1000×g for 10 min, and kept the resultant supernatant for further centrifuge at 17000×g for 30 min to obtain a crude plasma membrane fraction.
Then, the fraction was washed and suspended twice in 0.32 M sucrose HEPES-buffer, which was subjected to a discontinuous sucrose density gradient consisting of successive layers of […], and centrifuged at 63000×g for 1 hour. The plasma membrane was collected at the interface between […] sucrose to be further suspended in 0.32 M sucrose solution for enzyme assays within 2 hours.
Na^+—K^+ ATPase activity was determined by measuring the amount of inorganic phosphate (Pi) liberated from ATP hydrolysis.
First, commercial Na^+—K^+ ATPase from porcine cerebral cortex (Sigma, 0.3 units/mg) or a purified plasma membrane fraction incorporated into a reaction mixture of 1 ml containing 3 mM ATP, 5 mM MgCl2, 80 mM NaCl, 20 mM KCl, and 40 mM Tris-HCl, pH7.4, was prepared. The enzymatic reaction was terminated 15 min after Na^+—K^+ ATPase incorporation by adding 200 μl of 30% (WN) trichloroacetic acid.
After centrifugation at 6000 rpm for 15 min, supernatant of 500 μl measured the inorganic phosphate using spectrophotometric methods. Enzyme activity was expressed as μmol Pi liberated from ATP by 1 mg of Na^+—K^+ ATPase during 1 hour. Protein content was quantified using a Bradford protein assay kit (Sigma). For the observation of inhibitory effects on Na^+—K^+ ATPase activity, ouabain or MLB of various concentrations was incubated with commercial Na^+—K^+ ATPase or the purified plasma membrane fraction at 37° C. for 10 min prior to incorporation into the reaction mixture.

[2] = system: cerebral hypoxia caused by sodium nitrite; experiment: Rat survival test after sodium nitrite (cerebral hypoxia); type: in vivo; conditions: FIG. 6, sodium nitrite 225 mg/kg
Procedure: Sodium nitrite will trigger the oxyhemoglobin converts into methemoglobin to cause the hypoxia and cell infract.
3-4 week old rats (about 20˜22 g) were randomly divided into three sample groups and one control group, and each group has 5 rats. […] After feeding for 7 days, one hour later of the final feeding, each rat was injected with sodium nitrite (225 mg/kg). Then count time on the spot to record the survival time of rats.

[3] = system: cerebral infarct after ischemia-reperfusion; experiment: Focal cerebral ischemia-reperfusion (CCA/MCA occlusion) infarct test in gerbils; type: in vivo, gerbil; conditions: for cell infarct volume vs control: FIG. 7; for cell infarct size vs control: FIG. 8
Na^+—K^+ ATPase [4] = experiment: Na+-K+ ATPase activity of rat myocardium (cardiac) cell membrane (Pi liberated from ATP hydrolysis); type: biochemical; conditions: FIG. 5, various MLB concentrations
Description: as §1
Next, the plasma membrane was isolated from the rat brain and heart at 4° C. The brain and heart homogenate were prepared respectively with homogenized plasma membrane in 10-20 volumes of […] sucrose solution containing 5.0 mM 4-(2-hydroxyethyl)-1-piperazineethanesulfonic acid (HEPES) and 1.0 mM EDTA, pH7.5. […]
Na^+—K^+ ATPase activity was determined by measuring the amount of inorganic phosphate (Pi) liberated from ATP hydrolysis. […]
After centrifugation at 6000 rpm for 15 min, supernatant of 500 μl measured the inorganic phosphate using spectrophotometric methods. Enzyme activity was expressed as μmol Pi liberated from ATP by 1 mg of Na^+—K^+ ATPase during 1 hour. Protein content was quantified using a Bradford protein assay kit (Sigma). […]

Structure (SMILES) | Na+-K+ ATPase activity (free Pi), MLB compared with ouabain (Na^+—K^+ ATPase [1]; rat brain cortex) | survival rate vs control after sodium nitrite ([2]; MLB 3 mg/Kg for 7 days) | survival rate vs control after sodium nitrite ([2]; MLB 9 mg/Kg for 7 days) | survival rate vs control after sodium nitrite ([2]; MLB 18 mg/Kg for 7 days) | Na+-K+ ATPase activity (inorganic phosphate liberated from ATP hydrolysis) with increasing concentration (Na^+—K^+ ATPase [1]; FIG. 1, rat brain cortex, various MLB concentrations, 37° C. 10 min preincubation) | Na+-K+ ATPase activity (free Pi) of brain cortex cell membrane (Na^+—K^+ ATPase [1]; FIG. 4, rat brain cortex cell membrane, various MLB concentrations) | cell infarct volume vs control ([3]; MLB 1.5 mg/Kg intraperitoneally 30 min before reperfusion) | cell infarct volume vs control ([3]; MLB 3 mg/Kg intraperitoneally 30 min before reperfusion) | cell infarct size vs control ([3]; MLB 0.3 mg/Kg forced oral fed 30 min after reperfusion) | cell infarct size vs control ([3]; MLB 3 mg/Kg forced oral fed 30 min after reperfusion) | Na+-K+ ATPase activity (free Pi) of cardiac cell membrane (Na^+—K^+ ATPase [4])
C[C@@H]1O[C@@H](O[C@H]2C[C@@H](O)[C@]3(CO)[C@H]4[C@H](O)C[C@]5(C)[C@@H](C6=CC(=O)OC6)CC[C@]5(O)[C@@H]4CC[C@]3(O)C2)[C@H](O)[C@H](O)[C@H]1O [ouabain, reference compound] | the amount of free inorganic phosphate (Pi) is dependent on the raised inhibitor (MLB or ouabain) dosage | – | – | – | – | – | – | – | – | – | –
O=C(/C=C/c1ccc(O)c2c1[C@H](C(=O)O[C@H](Cc1ccc(O)c(O)c1)C(=O)[O-])[C@@H](c1ccc(O)c(O)c1)O2)O[C@H](Cc1ccc(O)c(O)c1)C(=O)[O-].[Mg+2] [MLB, magnesium lithospermate B] | the inhibitory behavior of MLB is consistent with the ouabain | significant (p<0.05) increase (two folds) | significant (p<0.05) different from the control group | significant (p<0.05) different from the control group | the measured free inorganic phosphate (Pi) decreases with increased MLB concentration | the MLB is able to inhibit the Na^+—K^+ ATPase activity of the cortex cell membrane | effective repression of cell infarct | significant (p<0.01) difference from the control group | effective repression of cell infarct | significant (p<0.01) difference from the control group | MLB is able to inhibit the Na^+—K^+ ATPase activity of cardiac cell membranes
